Laboratory results: patent US20240285785A1, “TARGETING SORTILIN” (priority 2022, published 2024)
Blank lines part the entries; values can stand above or below the molecule they belong to. Where a SMILES comes first, the peptide text is derived from it. [ ]: non-standard residue; d: D form. The star is where a group is joined. Dolaproine = CO[C@@H]([C@@H]1CCCN1)[C@@H](C)C(=O)O; Dil = CC[C@H](C)[C@H](NC)[C@@H](CC(=O)O)OC; X1 = C[C@@H](N*)[C@@H](O)c1ccccc1; NMeV = CN[C@H](C(=O)O)C(C)C

Columns and labels:
SORT1 = molecular target: T1, SORT1 (Homo sapiens, UniProt Q99523); assay: Direct binding in fluorescence polarization (FP), FAM-labeled peptides; details: direct titration, FAM-labeled peptide
T1 construct: Human SORT1 (78-755)-His (Acrobiosystems); His (C); purchased Acrobiosystems SON—H52H5
T1 sequence (Q99523 78-755): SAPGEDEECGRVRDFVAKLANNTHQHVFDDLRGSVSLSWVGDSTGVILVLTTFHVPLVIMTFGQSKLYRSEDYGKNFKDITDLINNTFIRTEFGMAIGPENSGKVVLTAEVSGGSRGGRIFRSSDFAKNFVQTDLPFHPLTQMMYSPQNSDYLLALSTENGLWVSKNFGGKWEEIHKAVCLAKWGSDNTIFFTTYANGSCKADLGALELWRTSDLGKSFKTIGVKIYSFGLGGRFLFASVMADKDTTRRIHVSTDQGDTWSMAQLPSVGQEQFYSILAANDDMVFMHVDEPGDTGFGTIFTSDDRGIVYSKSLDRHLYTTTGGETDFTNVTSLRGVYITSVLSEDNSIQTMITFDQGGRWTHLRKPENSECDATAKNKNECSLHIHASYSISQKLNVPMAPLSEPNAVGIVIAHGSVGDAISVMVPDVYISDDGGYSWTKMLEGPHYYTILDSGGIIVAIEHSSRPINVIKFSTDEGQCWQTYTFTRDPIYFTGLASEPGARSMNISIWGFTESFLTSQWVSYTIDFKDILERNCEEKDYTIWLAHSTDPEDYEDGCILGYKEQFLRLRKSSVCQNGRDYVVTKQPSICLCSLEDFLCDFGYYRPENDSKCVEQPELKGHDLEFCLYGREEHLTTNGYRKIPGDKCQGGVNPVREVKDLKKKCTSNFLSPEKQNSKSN
Description: Peptides were dissolved into stock solutions in water, then brought up to final concentrations in 1×PBS, pH 7.4 and tested in DLS and CD (methods above) to ensure the peptides were soluble. Peptide concentrations were determined by quantifying the dye using the nanodrop and dye specific extinction coefficient at a specific wavelength. For FAM labeled dyes, the extinction coefficient 83000 cm^−1 M^−1 was used.
FAM labeled peptides were diluted to 1 μM in FP buffer (1×PBS, pH 7.4, 0.1% Tween-20) and serially diluted two-fold for a 12-point series to determine concentration at which the fluorescence intensity was 10,000 RFU and the polarization of the peptide was consistent. A 10× working solution would thus be 10× the concentration of FAM labeled peptide that satisfied the above criteria. […]
A 10× working solution of FAM-labeled peptides was prepared in the FP buffer (1×PBS, pH 7.4, 0.1% Tween-20). […] The 384-well plate was then centrifuged 1 min, 4000 rpm and fluorescence and polarization of dye measured on a Biotek Synergy Neo2 plate reader using the following settings (Excitation 485/20, Emission 528/20, Top read, Gain: 75, Light source: Xenon Flash, Lamp Energy: Low, Standard Dynamic range, Read speed: Normal, Delay: 0 msec, Measurements/Data Point: 10, Read Height: 9 mm). […]

[1] = Dynamic light scattering (DLS) solubility/aggregation; assay type: physicochemical; details: working concentrations (250 nM, PBS, pH 7.4)
Description: Samples were spun down on a bench top centrifuge, 15 minutes, 15,000 rpm, room temperature, to pellet any aggregated peptide/dust before taking a measurement. Visual inspection of the tubes was used to identify if any large pellets were formed, which is indicative of large aggregates. […] The plate was then transferred and read on the DLS instrument (Wyatt Technology DynaPro Plate Reader III) at 25° C.

MDA-MB-231 tumor cells = assay: MDA-MB-231 murine xenograft efficacy model; assay type: in vivo, BALB/c Nude mice; details: for body weight loss: Example 8, PDC 3 mg/kg, free MMAE 0.6 mg/kg, i.v. QW×4
Description: Murine xenograft experiments were conducted at WuXi AppTec and/or Charles River Laboratories and the care and use of animals was conducted in accordance with the regulations of the Association for Assessment and Accreditation of Laboratory Animal Care (AAALAC). MDA-MB-231 tumor cells (ATCC, Manassas, VA, cat #HTB-26) were grown and maintained in L15 medium supplemented with 10% heat inactivated fetal bovine serum, 1% Antibiotic-Antimycotic, and L-glutamine (2 mM) at 37° C. in an atmosphere in 5% CO2, 95% air. BALB/c Nude, female, 6-8 weeks, weighing approximately 18-22 g were purchased from Vital River Laboratory Animal Technology Co., LTD. Mice were inoculated subcutaneously at the right flank with MDA-MB-231 tumor cells (e.g., triple negative breast cancer cells) (10×10^6) in 0.2 mL of PBS with Matrigel (1:1) for tumor development. Animals were randomized and treatment was started when the average tumor volume reached approximately 150-200 mm^3 for the efficacy study. Dosing volume was adjusted based on body weight and was administered at 10 ml/Kg. […] Free MMAE payload was also tested, and similarly dissolved in 25 mM Histidine 10% sucrose pH 7 and one or more of the following doses, 0.6, 0.06 mg/kg, were administered to the mice i.v. at a QW×4 schedule. Tumor sizes were measured twice weekly in two dimensions using a caliper, and the volume in mm^3 calculated using the formula: V=0.5 a×b^2, where a and b are the long and short diameters of the tumor, respectively. TGI was calculated for each group using the formula: TGI (%)=[1−(Ti−T0)/(Vi−V0)]×100; where Ti is the average tumor volume of a treatment group on a given day, T0 is the average tumor volume of the treatment group on the first day of treatment, Vi is the average tumor volume of the vehicle control group on the same day with Ti, and V0 is the average tumor volume of the vehicle group on the first day of treatment.

[2] = Murine hematotoxicity assay; assay type: in vivo, BALB/c mice; details: 3 mg/kg i.v. QW×4, compared to vehicle or MMAE treatment
Description: Murine hematotoxicity experiments were conducted at Charles River Laboratories and the care and use of animals was conducted in accordance with the regulations of the Association for Assessment and Accreditation of Laboratory Animal Care (AAALAC). Wild type BALB/c, female, 7-8 weeks, weighing approximately 18-22 g were randomized and dosed intravenously with control or test articles at a QW×4 schedule. Dosing volume was adjusted based on body weight and was administered at 10 mL/Kg. PDCs were dissolved in 25 mM Histidine 10% sucrose pH 7 and 3 mg/kg was administered. Free MMAE payload was also tested, and similarly dissolved in 25 mM Histidine 10% sucrose pH 7 and administered to the mice at a dose of […] by i.v. injection at a QW×4 schedule. 3 days following each dose, 150 μL of whole blood was collected via submandibular method and placed in K2 EDTA tubes stored on ice. Blood neutrophil counts were performed on the day of collection by IDEXX labs. Body weights were recorded twice a week until study endpoint.
As outlined in the material and methods of Example 1, wild type BALB/c, female, 7-8 weeks, weighing approximately 18-22 g were randomized and dosed intravenously with control or test articles at a QW×4 schedule. Dosing volume was adjusted based on body weight and was administered at 10 ml/Kg. […] Free MMAE payload was also tested, and similarly dissolved in 25 mM Histidine 10% sucrose pH 7 and administered to the mice at a dose of […] by i.v. injection at a QW×4 schedule. 3 days following each dose, 150 μL of whole blood was collected via submandibular method and placed in K2 EDTA tubes stored on ice. Blood neutrophil counts were performed on the day of collection by IDEXX labs. Body weights were recorded twice a week until study endpoint.

[3] = Maximum tolerated dose (MTD) study; assay type: in vivo, BALB/c Nude mice; details: 10 mg/kg single i.v. dose
Description: BALB/c Nude mice, female, 6-8 weeks, weighing approximately 18-22 g were purchased from the Shanghai SLAC Laboratory Animal Co., LTD. MTD studies were conducted at WuXi AppTec and the care and use of animals was conducted in accordance with the regulations of the Association for Assessment and Accreditation of Laboratory Animal Care (AAALAC). Two MTD studies were performed (a) a low dose study with doses ranging from 0.1, 0.5, 1 and 3 mg/kg and (b) a high dose study with doses ranging from 3, 5, 10 mg/kg. Dosing volume was determined based on body weight (10 ul/g) and PDCs were dissolved in 25 mM Histidine 10% sucrose pH 7 and administered i.v. at a single dose at day 0. The treatment and observation were conducted up to 7 days and MTD was defined by ≥20% body weight loss. Body weights were measured daily, death and observed clinical signs were recorded.
Doses of 3, 5, and 10 mg/kg were administered. MTD was defined by ≥20% body weight loss and body weight measured daily.

[4] = Murine serum stability assay; assay type: in vitro ADME, mouse (CD-1); details: male, CD-1, mouse, mouse serum, male CD-1 mouse serum, 37° C.; read-out: Murine serum stability assay, T1/2
Description: Serum was drawn from male CD-1 mice by Pharmidex. Lyophilized peptides were solubilized in DMSO and then further diluted into male mouse (CD-1) serum at 37° C. in duplicates. The reaction was incubated at 37° C. and samples extracted at 6 time points: 0, 0.16, 0.5, 1, 3, and 6 hrs. Acetonitrile (ACN) with internal standard (tolbutamide) was added to stop the incubation. Samples were centrifuged, and the supernatant was analyzed by HPLC-MS/MS for the parent compound.

Compound: CC[C@H](C)[C@@H]([C@@H](CC(=O)N1CCC[C@H]1[C@H](OC)[C@@H](C)C(=O)N[C@H](C)[C@@H](O)c1ccccc1)OC)N(C)C(=O)[C@@H](NC(=O)[C@@H](NC)C(C)C)C(C)C [MMAE, Monomethyl auristatin E, reference compound] (H-[NMeV]V[Dil][Dolaproine]-X1)
body weight variation (MDA-MB-231 tumor cells; Example 6, PDC 3, 1, 0.3 mg/kg, free MMAE at equivalency to 3 mg/kg PDC): body weight fluctuations corresponding to treatment times
body weight loss (MDA-MB-231 tumor cells): body weight fluctuations corresponding to treatment times

Compound: CCCC[C@@H]1NC(=O)[C@H](CCCNC(=N)N)NC(=O)[C@H](CCCCNC(=O)CN(C)C(=O)CN(C)C(=O)CN(C)C(=O)CN(C)C(=O)CCNC(=O)CCCC(=O)N[C@H](C(=O)N[C@@H](CCCNC(N)=O)C(=O)Nc2ccc(COC(=O)N(C)[C@H](C(=O)N[C@H](C(=O)N(C)[C@@H]([C@@H](C)CC)[C@@H](CC(=O)N3CCC[C@H]3[C@H](OC)[C@@H](C)C(=O)N[C@H](C)[C@@H](O)c3ccccc3)OC)C(C)C)C(C)C)cc2)C(C)C)NC(=O)[C@H](CC(N)=O)NC(=O)[C@H](CCC(=O)O)NC(=O)[C@@H](NC(=O)[C@H](Cc2c[nH]c3ccccc23)NC(=O)[C@H](CCCNC(=N)N)NC(C)=O)CSSC[C@@H](C(=O)N[C@@H](CCCNC(=N)N)C(=O)N[C@@H](CCC(N)=O)C(=O)N[C@H](C(=O)N[C@@H](CC(C)(C)C)C(=O)O)C(C)(C)C)NC(=O)[C@H]([C@@H](C)O)NC(=O)[C@H](Cc2ccccc2)NC1=O [Arb_cyclic_G23-PDC]
tumor growth inhibited relative to vehicle (MDA-MB-231 tumor cells; 3 mg/kg i.v. QW×4, day 22 (Example 8)): 68%
body weight loss (MDA-MB-231 tumor cells): body weight loss tracked each other
blood neutrophil counts [2]: reduced neutrophil counts

Compound: CC[C@H](C)[C@@H]([C@@H](CC(=O)N1CCC[C@H]1[C@H](OC)[C@@H](C)C(=O)N[C@H](C)[C@@H](O)c1ccccc1)OC)N(C)C(=O)[C@@H](NC(=O)[C@H](C(C)C)N(C)C(=O)OCc1ccc(NC(=O)[C@H](CCCNC(N)=O)NC(=O)[C@@H](NC(=O)CCCC(=O)NCCC(=O)N(C)CC(=O)N(C)CC(=O)N(C)CC(=O)N(C)CC(=O)N[C@@H](CC(=O)O)C(=O)N[C@@H](CC(=O)O)C(=O)N2CCC[C@H]2C(=O)N[C@@H](CCCNC(=N)N)C(=O)N[C@@H](C)C(=O)N2CCC[C@H]2C(=O)N[C@@H](Cc2c[nH]c3ccccc23)C(=O)N2CCC[C@H]2C(=O)N[C@@H](C)C(=O)N[C@@H](CC(C)C)C(=O)N[C@@H](CCC(N)=O)C(=O)N[C@@H](CCCNC(=N)N)C(=O)N[C@@H](CC(C)C)C(=O)N[C@@H](C)C(=O)N[C@@H](CC(C)C)C(=O)N[C@@H](CCCNC(=N)N)C(=O)N[C@@H](CC(C)C)C(=O)O)C(C)C)cc1)C(C)C [PRGN_RL_PDC]
toxicity [3]: mild toxicity

The next lines start with the values.

affinity in FP (direct binding to SORT1-Ag) (SORT1): no binding
solubility (DLS) [1]: good solubility
Compound: CC(C)C[C@H](NC(=O)[C@H](CC(C)C)NC(=O)[C@H](CC(=O)O)NC(=O)[C@H](CCCNC(=N)N)NC(=O)[C@@H]1CCCN1C(=O)[C@H](CC(C)C)NC(=O)[C@H](CCCNC(=N)N)NC(=O)[C@H](C)NC(=O)[C@H](CC(C)C)NC(=O)[C@H](CCCNC(=N)N)NC(=O)[C@@H](N)CCC(N)=O)C(=O)N[C@@H](C)C(=O)N[C@@H](Cc1c[nH]c2ccccc12)C(=O)N1CCC[C@H]1C(=O)N1CCC[C@H]1C(=O)N[C@@H](C)C(=O)N[C@@H](CC(=O)O)C(=O)O [PRGN_scr, reference compound]

solubility (DLS) [1]: good solubility
Compound: CC(C)C[C@H](NC(=O)[C@H](CC(C)C)NC(=O)[C@H](CCC(N)=O)NC(=O)[C@H](CCCNC(=N)N)NC(=O)[C@H](CC(C)C)NC(=O)[C@H](C)NC(=O)[C@@H]1CCCN1C(=O)[C@H](CC(=O)O)NC(=O)[C@H](CCCNC(=N)N)NC(=O)[C@H](CC(C)C)NC(=O)[C@@H]1CCCN1C(=O)[C@H](C)NC(=O)[C@H](CC(=O)O)NC(=O)[C@H](Cc1c[nH]c2ccccc12)NC(=O)[C@H](CCCNC(=N)N)NC(=O)[C@@H]1CCCN1C(=O)[C@H](C)N)C(=O)O [PRGN_WT]

half-life [4]: 50.9 min
Compound: CCCC[C@@H]1NC(=O)[C@H](CCCNC(=N)N)NC(=O)[C@H](Cc2c[nH]cn2)NC(=O)[C@H]([C@@H](C)O)NC(=O)[C@H]([C@@H](C)O)NC(=O)[C@@H](NC(=O)[C@H](CO)NC(=O)[C@H](CCCNC(=N)N)NC(C)=O)CSSC[C@@H](C(=O)N[C@@H](CCCNC(=N)N)C(=O)N[C@@H](CCC(N)=O)C(=O)N[C@H](C(=O)N[C@@H](CC(C)(C)C)C(=O)O)C(C)(C)C)NC(=O)[C@H]([C@@H](C)O)NC(=O)[C@H](C)NC1=O [Arb_cyclic_G14, RSCTTHR(Nle)ATCRQ(B13)(F02)]
